Key:
Type in all cases: in vivo
wheat = assay: Test Example 4: phytotoxicity to upland crop plants, treatment after emergence; settings: dosage 5 kg/ha, sprayed after emergence, judged 14 days after treatment
Summary of the method: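 Upland weeds and crop plants (soybean, wheat) are grown from seed in soil until they reach given leaf stages, then treated by spraying with the compound-containing agent; effects are judged two weeks later.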

soybean plant = assay: as above; settings: dosage 5 kg/ha, sprayed after emergence, judged 14 days after treatment
Summary of the method: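 Weeds and soybean grown in soil-filled vats to set leaf stages, then sprayed post-emergence with the compound at a prescribed concentration. Weed-killing rate and crop phytotoxicity judged 14 days after treatment.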

[1] = system: bulrush (Scirpus juncoides Roxb.); assay: Test Example 2: herbicidal effect on paddy field weeds after emergence; settings: Dosage 5 kg/ha; one-leaved stage; 21 days after treatment
Summary of the method: (§1)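 Weeds were sown in 1/10000 are pots of soil flooded to paddy conditions and grown to the one-leaf stage, then the soil was treated with a solution of compound at a predetermined dosage.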

[2] = system: monochoria (Monochoria vaginalis Presl); assay: as above; settings: Dosage 5 kg/ha; one-leaved stage; 21 days after treatment
Summary of the method: as §1

[3] = system: barnyard grass (Echinochloa crus-galli Beauv.); assay: as above; settings: Dosage 5 kg/ha; one-leaved stage; 21 days after treatment
Summary of the method: as §1

[4] = system: barnyard grass (Echinochloa crus-galli Beauv.), Ec; assay: Test Example 3: herbicidal effect on upland weeds before emergence; settings: dosage 5 kg/ha
Summary of the method: (§2)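 Herbicidal activity was rated from kill rate determined 14 days post-spray, the compound having been applied pre-emergence as a liquid agent.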

[5] = system: cleavers (Galium aparine L.), Ga; assay: as above; settings: dosage 5 kg/ha
Summary of the method: as §2

[6] = system: forxtail grass (Alopecurus aequalis var. amurensis Ohwi), Am; assay: as above; settings: foxtail grass, dosage 5 kg/ha
Summary of the method: as §2

[7] = system: velvetleaf (Abutilon theophtasti L.), At; assay: as above; settings: dosage 5 kg/ha
Summary of the method: as §2

[8] = system: bird's eye speedwell (Veronica persica Poir.), Vp; assay: as above; settings: dosage 5 kg/ha
Summary of the method: as §2

[9] = system: cocklebur (Xanthium strumarium L.), Xs; assay: as above; settings: dosage 5 kg/ha
Summary of the method: as §2

wheat (Wh) = assay: Test Example 3: phytotoxicity to upland crop plants, treatment before emergence; settings: dosage 5 kg/ha
Summary of the method: (§3)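 Compound formulated as a liquid agent at a prescribed concentration is sprayed before crop emergence. After fourteen days, damage to soybean and wheat is examined and rated by a judgment criterion.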

soybean plant (So) = assay: as above; settings: dosage 5 kg/ha
Summary of the method: as §3

[10] = system: barnyard grass (Echinochloa crus-galli Beauv.), Ec; assay: Test Example 4: herbicidal effect on upland weeds after emergence; settings: dosage 5 kg/ha; sprayed after emergence; judged 14 days after treatment
Summary of the method: (§4)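 Scores of weed-killing rate, with crop phytotoxicity, come from inspection 14 days after plants in soil vats, grown to specified leaf stages, are sprayed with a formulation holding the compound at a prescribed concentration.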

[11] = system: cleavers (Galium aparine L.), Ga; assay: as above; settings: dosage 5 kg/ha; sprayed after emergence; judged 14 days after treatment
Summary of the method: as §4

[12] = system: forxtail grass (Alopecurus aequalis var. amurensis Ohwi), Am; assay: as above; settings: dosage 5 kg/ha; sprayed after emergence; judged 14 days after treatment
Summary of the method: as §4

[13] = system: velvetleaf (Abutilon theophtasti L.), At; assay: as above; settings: dosage 5 kg/ha; sprayed after emergence; judged 14 days after treatment
Summary of the method: as §4

[14] = system: bird's eye speedwell (Veronica persica Poir.), Vp; assay: as above; settings: dosage 5 kg/ha; sprayed after emergence; judged 14 days after treatment
Summary of the method: as §4

[15] = system: cocklebur (Xanthium strumarium L.), Xs; assay: as above; settings: dosage 5 kg/ha; sprayed after emergence; judged 14 days after treatment
Summary of the method: as §4

[16] = system: bulrush (Scirpus juncoides Roxb.); assay: Test Example 1: herbicidal effect on paddy field weeds before emergence; settings: Dosage 5 kg/ha
Summary of the method: (§5)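 Seeds of both weeds, still ungerminated, in soil pots held under paddy conditions received a set dose of test solution as soil treatment. After twenty-one days, control relative to untreated pots was calculated and rated on a scoring scale.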

[17] = system: barnyard grass (Echinochloa crus-galli Beauv.); assay: as above; settings: Dosage 5 kg/ha
Summary of the method: as §5

| Structure (SMILES) | Phytotoxicity Wh (wheat) | Phytotoxicity So (soybean plant) | Post-emergence treatment Bulrush (herbicidal effect) [1] | Post-emergence treatment Monochoria (herbicidal effect) [2] | Post-emergence treatment Barnyard grass (herbicidal effect) [3] | Herbicidal effect Ec [4] | Herbicidal effect Ga [5] | Herbicidal effect Am [6] | Herbicidal effect At [7] | Herbicidal effect Vp [8] | Herbicidal effect Xs [9] | Phytotoxicity Wh (wheat (Wh)) | Phytotoxicity So (soybean plant (So)) | Herbicidal effect Ec [10] | Herbicidal effect Ga [11] | Herbicidal effect Am [12] | Herbicidal effect At [13] | Herbicidal effect Vp [14] | Herbicidal effect Xs [15] | Pre-emergence treatment Bulrush (herbicidal effect) [16] | also measured |
| --- | --- | --- | --- | --- | --- | --- | --- | --- | --- | --- | --- | --- | --- | --- | --- | --- | --- | --- | --- | --- | --- |
| CCNC(=O)c1nc2ccc(O)cc2cc1C(=O)Nc1c(CC)ccc(Cl)c1CC [compound 275] | 2 (Crop-killing rate is 40-69%.) | 1 (Crop-killing rate is 1-39%.) | 4 (Weed-killing rate is 90-99%.) | 5 (Weed-killing rate is 100%.) | 5 (Weed-killing rate is 100%.) | 4 (Weed-killing rate is 90-99%.) | 3 (Weed-killing rate is 70-89%.) | 3 (Weed-killing rate is 70-89%.) | 4 (Weed-killing rate is 90-99%.) | 4 (Weed-killing rate is 90-99%.) | 3 (Weed-killing rate is 70-89%.) | 1 (Crop-killing rate is 1-39%.) | 0 (Crop-killing rate is 0-20% (No Phytotoxicity).) | 4 (Weed-killing rate is 90-99%.) | 3 (Weed-killing rate is 70-89%.) | 3 (Weed-killing rate is 70-89%.) | 4 (Weed-killing rate is 90-99%.) | 4 (Weed-killing rate is 90-99%.) | 3 (Weed-killing rate is 70-89%.) | 5 (Weed-killing rate is 100%.) | Pre-emergence treatment Barnyard grass (herbicidal effect) [17]: 5 (Weed-killing rate is 100%.) |
| CCCNC(=O)c1nc2ccc(O)cc2cc1C(=O)Nc1c(CC)ccc(Cl)c1CC [compound 276] | 3 (Crop-killing rate is 70-89%.) | 2 (Crop-killing rate is 40-69%.) | 4 (Weed-killing rate is 90-99%.) | 5 (Weed-killing rate is 100%.) | 3 (Weed-killing rate is 70-89%.) | 5 (Weed-killing rate is 100%.) | 4 (Weed-killing rate is 90-99%.) | 4 (Weed-killing rate is 90-99%.) | 5 (Weed-killing rate is 100%.) | 5 (Weed-killing rate is 100%.) | 4 (Weed-killing rate is 90-99%.) | 2 (Crop-killing rate is 40-69%.) | 0 (Crop-killing rate is 0-20% (No Phytotoxicity).) | 5 (Weed-killing rate is 100%.) | 4 (Weed-killing rate is 90-99%.) | 4 (Weed-killing rate is 90-99%.) | 5 (Weed-killing rate is 100%.) | 5 (Weed-killing rate is 100%.) | 4 (Weed-killing rate is 90-99%.) | 5 (Weed-killing rate is 100%.) | Pre-emergence treatment Barnyard grass (herbicidal effect) [17]: 5 (Weed-killing rate is 100%.) |
| CCNC(=O)c1nc2ccc(OC)cc2cc1C(=O)Nc1c(CC)ccc(Cl)c1CC [compound 289] | 2 (Crop-killing rate is 40-69%.) | 1 (Crop-killing rate is 1-39%.) | 4 (Weed-killing rate is 90-99%.) | 5 (Weed-killing rate is 100%.) | 5 (Weed-killing rate is 100%.) | 5 (Weed-killing rate is 100%.) | 4 (Weed-killing rate is 90-99%.) | 4 (Weed-killing rate is 90-99%.) | 5 (Weed-killing rate is 100%.) | 5 (Weed-killing rate is 100%.) | 3 (Weed-killing rate is 70-89%.) | 2 (Crop-killing rate is 40-69%.) | 1 (Crop-killing rate is 1-39%.) | 5 (Weed-killing rate is 100%.) | 4 (Weed-killing rate is 90-99%.) | 4 (Weed-killing rate is 90-99%.) | 5 (Weed-killing rate is 100%.) | 5 (Weed-killing rate is 100%.) | 3 (Weed-killing rate is 70-89%.) | 5 (Weed-killing rate is 100%.) | Pre-emergence treatment Barnyard grass (herbicidal effect) [17]: 5 (Weed-killing rate is 100%.) |
| CCCNC(=O)c1nc2ccc(OC)cc2cc1C(=O)Nc1c(CC)ccc(Cl)c1CC [compound 290] | 3 (Crop-killing rate is 70-89%.) | 2 (Crop-killing rate is 40-69%.) | 5 (Weed-killing rate is 100%.) | 5 (Weed-killing rate is 100%.) | 5 (Weed-killing rate is 100%.) | 5 (Weed-killing rate is 100%.) | 5 (Weed-killing rate is 100%.) | 5 (Weed-killing rate is 100%.) | 5 (Weed-killing rate is 100%.) | 5 (Weed-killing rate is 100%.) | 4 (Weed-killing rate is 90-99%.) | 2 (Crop-killing rate is 40-69%.) | 1 (Crop-killing rate is 1-39%.) | 5 (Weed-killing rate is 100%.) | 5 (Weed-killing rate is 100%.) | 5 (Weed-killing rate is 100%.) | 5 (Weed-killing rate is 100%.) | 5 (Weed-killing rate is 100%.) | 4 (Weed-killing rate is 90-99%.) | 5 (Weed-killing rate is 100%.) | Pre-emergence treatment Barnyard grass (herbicidal effect) [17]: 5 (Weed-killing rate is 100%.) |
| CCc1ccc(Cl)c(CC)c1NC(=O)c1cc2cc(OC)ccc2nc1C(=O)NOC(C)C [compound 291] | 2 (Crop-killing rate is 40-69%.) | 2 (Crop-killing rate is 40-69%.) | 4 (Weed-killing rate is 90-99%.) | 5 (Weed-killing rate is 100%.) | 5 (Weed-killing rate is 100%.) | 5 (Weed-killing rate is 100%.) | 5 (Weed-killing rate is 100%.) | 4 (Weed-killing rate is 90-99%.) | 5 (Weed-killing rate is 100%.) | 5 (Weed-killing rate is 100%.) | 4 (Weed-killing rate is 90-99%.) | 1 (Crop-killing rate is 1-39%.) | 0 (Crop-killing rate is 0-20% (No Phytotoxicity).) | 5 (Weed-killing rate is 100%.) | 4 (Weed-killing rate is 90-99%.) | 4 (Weed-killing rate is 90-99%.) | 5 (Weed-killing rate is 100%.) | 5 (Weed-killing rate is 100%.) | 4 (Weed-killing rate is 90-99%.) | 4 (Weed-killing rate is 90-99%.) | Pre-emergence treatment Barnyard grass (herbicidal effect) [17]: 5 (Weed-killing rate is 100%.) |
